The values that follow are results of earlier work, collected in patent US20180015074A1, “USE OF MTOR INHIBITORS TO PREVENT AND REGRESS EDHESIONS AND FIBROSIS” (THE BOARD OF REGENTS OF THE UNIVERSITY OF TEXAS SYSTEM, priority 2015, published 2018).

Where two headings read alike, the source gives them in different places.

Series [1] has as its system wound strength in the intestine and abdominal fascia.
The test system of a further series is post-surgical adhesions. Particulars: daily IP injection immediately following surgery, rat.

For `CO[C@H]1C[C@@H]2CC[C@@H](C)[C@@](O)(O2)C(=O)C(=O)N2CCCC[C@H]2C(=O)O[C@H]([C@H](C)C[C@@H]2CC[C@@H](O)[C@H](OC)C2)CC(=O)[C@H](C)/C=C(\C)[C@@H](O)[C@@H](OC)C(=O)[C@H](C)C[C@H](C)/C=C/C=C/C=C/1C` [rapamycin, (3S,6R,7E,9R,10R,12R,14S,15E,17E,19E,21S,23S,26R,27R,34aS)-9,10,12,13,14,-21,22,23,24,25,26,27,32,33,34,34a-hexadecahydro-9,27-dihydroxy-3-[(1R)-2-[-(1S,3R,4R)-4-hydroxy-3-methoxycyclohexyl]-1-methylethyl]-10,21-dimethoxy-6,8,12,14,20,26-hexamethyl-23,27-epoxy-3H-pyrido[2,1-c][1,4]oxaazacyclohent-ria-contine-1,5,11,28,29(4H,6H,31H)-pentone], the wound strength entry in series [1] (administration delayed 2-4 days post-surgery) is listed as “ameliorated this loss”; in series [1] (administration immediately following surgery), “serious loss of wound strength”. The wound infections result in the series with post-surgical adhesions is recorded as “higher rate of wound infections”.
